Results from ChEMBL document CHEMBL1201862, “PubChem BioAssay data set” (2004).
Activity calls are given as the source filed them.

Columns and labels:
[1] = target: Dual specificity tyrosine-phosphorylation-regulated kinase 1A (Rattus norvegicus, UniProt Q63470); format: biochemical, Homo sapiens
Beta-galactosidase = Beta-galactosidase (Escherichia coli, UniProt Q8VNN2); experiment: PubChem AID 485352; format: functional
[2] = target: T1, Zinc finger protein mex-5 (Caenorhabditis elegans, UniProt Q9XUB2); experiment: MEX-5/TCR-2 RNA interaction inhibitors, dose response, biochemical, C. elegans, fluorescence polarization (AID 1960)
T1 sequence (Q9XUB2 whole entry): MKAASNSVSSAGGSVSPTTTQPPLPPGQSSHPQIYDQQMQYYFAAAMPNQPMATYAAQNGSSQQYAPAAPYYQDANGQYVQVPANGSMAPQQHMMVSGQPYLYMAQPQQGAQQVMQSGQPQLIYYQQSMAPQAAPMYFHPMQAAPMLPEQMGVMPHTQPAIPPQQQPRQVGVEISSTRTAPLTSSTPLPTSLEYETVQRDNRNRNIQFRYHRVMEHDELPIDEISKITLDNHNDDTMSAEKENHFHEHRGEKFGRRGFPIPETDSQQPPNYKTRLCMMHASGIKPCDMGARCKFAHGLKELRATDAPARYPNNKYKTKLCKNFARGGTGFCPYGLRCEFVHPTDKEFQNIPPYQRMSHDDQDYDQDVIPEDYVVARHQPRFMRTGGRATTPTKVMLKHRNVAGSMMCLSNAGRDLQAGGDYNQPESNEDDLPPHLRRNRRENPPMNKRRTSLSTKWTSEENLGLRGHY

[3] = target: T2, Type-1 angiotensin II receptor (Homo sapiens, UniProt P30556); experiment: AT1 receptor antagonists, dose response, selectivity assay for APJ receptor antagonist project, cell-based, uHTS hits (AID 463214); format: functional;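 also: antagonist potency against angiotensin II stimulated AT1 response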
T2 sequence (P30556 whole entry): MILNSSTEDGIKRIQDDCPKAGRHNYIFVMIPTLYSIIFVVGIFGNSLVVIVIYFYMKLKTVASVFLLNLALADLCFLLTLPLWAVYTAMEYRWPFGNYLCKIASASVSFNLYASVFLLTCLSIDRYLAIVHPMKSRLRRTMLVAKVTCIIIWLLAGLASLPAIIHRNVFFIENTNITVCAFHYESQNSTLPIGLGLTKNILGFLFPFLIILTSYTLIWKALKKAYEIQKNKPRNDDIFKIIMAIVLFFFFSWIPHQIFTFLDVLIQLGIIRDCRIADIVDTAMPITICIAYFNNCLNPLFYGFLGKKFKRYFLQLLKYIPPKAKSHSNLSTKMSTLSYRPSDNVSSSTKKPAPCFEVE

[4] = target: T3, RNA-binding protein pos-1 (Caenorhabditis elegans, UniProt G5EF15); experiment: inhibitors of POS-1/mex-3 RNA binding, dose response, biochemical, fluorescence polarization (AID 1964);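 also: purified POS-1 fused to maltose binding protein made in E. coli; potency of compounds blocking POS-1 binding to fluorescent RNA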
T3 sequence (G5EF15 whole entry): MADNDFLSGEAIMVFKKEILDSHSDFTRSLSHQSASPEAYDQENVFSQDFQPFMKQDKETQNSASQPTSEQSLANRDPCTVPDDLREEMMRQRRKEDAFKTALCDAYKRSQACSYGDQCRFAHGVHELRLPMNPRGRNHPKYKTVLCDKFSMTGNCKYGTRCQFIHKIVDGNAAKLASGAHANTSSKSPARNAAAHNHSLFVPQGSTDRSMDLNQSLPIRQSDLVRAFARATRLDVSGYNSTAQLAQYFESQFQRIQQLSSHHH

[5] = inhibitors of intracellular T. cruzi replication, confirmation, NIH3T3 host cells, beta-gal luminescence (AID 2044); format: functional, cell-based;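 also: intracellular parasites grown in NIH/3T3 mouse fibroblasts as host cells; luminescent beta-galactosidase reporter signal from transgenic T. cruzi replicating inside host cells; inhibitors lower the luminescence signal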
[6] = target: Glucose-6-phosphate 1-dehydrogenase (Homo sapiens, UniProt P11413); experiment: human G6PD enzyme inhibitors, dose response, selectivity assay for P. falciparum G6PD inhibitor project, biochemical, fluorescence (AID 504792); format: functional
[7] = cytotoxicity toward NIH3T3 fibroblasts, dose response, counter-screen, cell-based, ATP luminescence, mouse fibroblasts (AID 2010); format: functional;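 also: cells exposed to compound for about 90 hours before reading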
[8] = target: Peroxisome proliferator-activated receptor gamma/Nuclear receptor coactivator 1 (Homo sapiens, UniProt P37231); experiment: TR-FRET dose response biochemical High Throughput Screening assay for agonists of the steroid receptor coactivator 1 (SRC-1) recruitment by the peroxisome proliferator-activated receptor gamma (PPAR gamma): non-selective agonists. [Related pubchem assays (depositor defined):AID1300, AID1808, AID504735, AID631]; format: protein assay
[9] = target: Peroxisome proliferator-activated receptor gamma/Nuclear receptor coactivator 2 (Homo sapiens, UniProt P37231); experiment: (§1) TR-FRET dose response biochemical High Throughput Screening assay for agonists of the steroid receptor coactivator 2 (SRC-2) recruitment by the peroxisome proliferator-activated receptor gamma (PPAR gamma): non-selective agonists. [Related pubchem assays: 1297, 1032 ]; format: functional
Sequence of Peroxisome proliferator-activated receptor gamma/Nuclear receptor coactivator 2 (P37231 whole entry): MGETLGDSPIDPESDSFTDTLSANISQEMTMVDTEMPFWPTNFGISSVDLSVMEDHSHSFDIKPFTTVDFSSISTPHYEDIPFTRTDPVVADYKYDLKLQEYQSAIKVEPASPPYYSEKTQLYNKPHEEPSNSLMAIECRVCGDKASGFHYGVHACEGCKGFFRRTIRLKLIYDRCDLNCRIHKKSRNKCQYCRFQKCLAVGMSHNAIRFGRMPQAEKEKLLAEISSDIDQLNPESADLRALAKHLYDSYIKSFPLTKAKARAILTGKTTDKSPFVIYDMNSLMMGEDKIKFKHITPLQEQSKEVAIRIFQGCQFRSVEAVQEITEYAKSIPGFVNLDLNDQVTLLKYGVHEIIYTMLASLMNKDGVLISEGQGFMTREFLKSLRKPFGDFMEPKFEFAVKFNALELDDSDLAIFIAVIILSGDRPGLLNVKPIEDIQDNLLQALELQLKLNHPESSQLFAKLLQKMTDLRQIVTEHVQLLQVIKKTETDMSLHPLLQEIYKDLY
Sequence of Peroxisome proliferator-activated receptor gamma/Nuclear receptor coactivator 2 (Q15596 whole entry, further chain): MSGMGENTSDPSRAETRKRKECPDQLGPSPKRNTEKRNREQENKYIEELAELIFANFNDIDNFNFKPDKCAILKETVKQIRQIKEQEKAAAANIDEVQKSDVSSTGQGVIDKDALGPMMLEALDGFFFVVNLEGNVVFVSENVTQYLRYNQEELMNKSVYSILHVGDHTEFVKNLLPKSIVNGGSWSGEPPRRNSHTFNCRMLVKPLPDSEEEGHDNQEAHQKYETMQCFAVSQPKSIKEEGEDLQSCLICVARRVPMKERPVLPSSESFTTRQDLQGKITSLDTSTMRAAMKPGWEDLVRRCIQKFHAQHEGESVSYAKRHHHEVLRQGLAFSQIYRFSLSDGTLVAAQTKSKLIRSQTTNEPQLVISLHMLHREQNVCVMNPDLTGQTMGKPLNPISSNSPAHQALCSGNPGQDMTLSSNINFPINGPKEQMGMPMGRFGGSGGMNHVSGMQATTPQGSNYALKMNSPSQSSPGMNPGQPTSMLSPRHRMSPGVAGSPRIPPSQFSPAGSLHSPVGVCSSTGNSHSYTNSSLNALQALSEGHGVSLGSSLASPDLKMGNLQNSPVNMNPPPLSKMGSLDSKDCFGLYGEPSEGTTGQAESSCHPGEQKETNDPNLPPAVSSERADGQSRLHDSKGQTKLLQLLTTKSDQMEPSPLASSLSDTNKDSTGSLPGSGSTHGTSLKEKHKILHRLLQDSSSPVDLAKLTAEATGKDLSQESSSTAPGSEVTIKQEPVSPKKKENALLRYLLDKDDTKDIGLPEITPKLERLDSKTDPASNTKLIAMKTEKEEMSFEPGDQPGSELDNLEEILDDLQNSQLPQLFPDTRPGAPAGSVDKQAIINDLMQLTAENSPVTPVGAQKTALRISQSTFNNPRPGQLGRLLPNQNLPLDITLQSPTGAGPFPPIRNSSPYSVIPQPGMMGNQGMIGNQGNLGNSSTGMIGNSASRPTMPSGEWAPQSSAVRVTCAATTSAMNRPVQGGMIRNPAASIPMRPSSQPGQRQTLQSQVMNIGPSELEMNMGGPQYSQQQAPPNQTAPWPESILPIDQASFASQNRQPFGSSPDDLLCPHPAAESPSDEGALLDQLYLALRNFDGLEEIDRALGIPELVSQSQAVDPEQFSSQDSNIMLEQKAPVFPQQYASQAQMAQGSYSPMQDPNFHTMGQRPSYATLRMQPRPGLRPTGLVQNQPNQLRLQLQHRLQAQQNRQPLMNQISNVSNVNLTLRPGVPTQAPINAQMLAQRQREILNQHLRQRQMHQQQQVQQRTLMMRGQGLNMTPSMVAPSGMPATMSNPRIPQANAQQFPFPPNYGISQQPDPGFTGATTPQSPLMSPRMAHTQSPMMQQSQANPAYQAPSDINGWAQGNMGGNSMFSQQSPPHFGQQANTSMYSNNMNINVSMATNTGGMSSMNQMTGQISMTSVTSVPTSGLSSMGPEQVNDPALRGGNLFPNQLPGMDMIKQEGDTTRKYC

[10] = target: Peroxisome proliferator-activated receptor gamma/Nuclear receptor coactivator 3 (Homo sapiens, UniProt P37231); experiment: as §1, with “3 (SRC-3)” for “2 (SRC-2)”, “1301 (Confirmation screen.), 1048 (Primary screen.)]” for “1297, 1032 ]”; format: functional
Sequence of Peroxisome proliferator-activated receptor gamma/Nuclear receptor coactivator 3 (P37231 whole entry): as the sequence (P37231 whole entry) above
Sequence of Peroxisome proliferator-activated receptor gamma/Nuclear receptor coactivator 3 (Q9Y6Q9 whole entry, further chain): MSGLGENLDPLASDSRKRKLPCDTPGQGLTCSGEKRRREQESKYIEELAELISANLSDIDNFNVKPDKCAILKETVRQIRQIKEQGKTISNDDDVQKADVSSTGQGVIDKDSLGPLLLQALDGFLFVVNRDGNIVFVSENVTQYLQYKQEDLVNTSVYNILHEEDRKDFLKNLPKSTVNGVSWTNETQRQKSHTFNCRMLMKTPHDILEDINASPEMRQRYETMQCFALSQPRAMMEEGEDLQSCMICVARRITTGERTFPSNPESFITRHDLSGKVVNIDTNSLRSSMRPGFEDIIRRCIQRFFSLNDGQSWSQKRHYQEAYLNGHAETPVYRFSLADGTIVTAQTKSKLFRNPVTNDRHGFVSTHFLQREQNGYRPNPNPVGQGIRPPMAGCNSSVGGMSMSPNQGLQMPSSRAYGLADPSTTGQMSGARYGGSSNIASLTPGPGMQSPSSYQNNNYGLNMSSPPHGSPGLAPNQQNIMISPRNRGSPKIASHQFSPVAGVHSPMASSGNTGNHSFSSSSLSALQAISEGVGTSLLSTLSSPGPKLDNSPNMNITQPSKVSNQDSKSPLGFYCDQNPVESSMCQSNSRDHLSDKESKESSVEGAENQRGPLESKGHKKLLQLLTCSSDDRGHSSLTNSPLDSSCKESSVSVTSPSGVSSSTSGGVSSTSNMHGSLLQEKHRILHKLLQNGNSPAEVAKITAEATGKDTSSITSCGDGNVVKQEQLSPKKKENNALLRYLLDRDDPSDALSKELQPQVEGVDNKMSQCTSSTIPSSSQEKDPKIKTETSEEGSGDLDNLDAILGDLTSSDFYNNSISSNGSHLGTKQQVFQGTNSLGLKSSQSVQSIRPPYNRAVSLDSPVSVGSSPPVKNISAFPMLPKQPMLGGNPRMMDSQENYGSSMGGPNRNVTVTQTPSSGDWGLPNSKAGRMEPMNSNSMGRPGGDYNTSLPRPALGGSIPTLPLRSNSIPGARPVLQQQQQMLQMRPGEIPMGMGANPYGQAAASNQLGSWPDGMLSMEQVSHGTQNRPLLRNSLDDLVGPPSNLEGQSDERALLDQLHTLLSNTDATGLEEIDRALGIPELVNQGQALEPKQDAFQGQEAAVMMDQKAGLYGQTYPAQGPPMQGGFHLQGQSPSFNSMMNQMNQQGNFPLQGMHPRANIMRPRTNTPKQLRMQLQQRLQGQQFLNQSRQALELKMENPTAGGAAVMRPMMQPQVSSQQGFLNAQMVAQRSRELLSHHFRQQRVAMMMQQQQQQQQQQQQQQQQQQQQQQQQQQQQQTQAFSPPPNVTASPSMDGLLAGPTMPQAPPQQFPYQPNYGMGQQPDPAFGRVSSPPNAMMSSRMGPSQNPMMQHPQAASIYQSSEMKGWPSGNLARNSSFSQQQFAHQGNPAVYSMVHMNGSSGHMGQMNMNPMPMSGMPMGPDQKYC

[11] = target: T4, Polyadenylate-binding protein 1 (Homo sapiens, UniProt P11940); experiment: PABP1 MLLE–PAM2 binding inhibitor potency, dose response, biochemical, fluorescence polarization, FITC-PAM2 peptide (AID 602259); format: functional; conditions: read-out: IC50_Mean
[12] = target: T4, Polyadenylate-binding protein 1; experiment: PABP1 MLLE–PAM2 interaction inhibitors, dose response, miRNA deadenylation inhibitor project, biochemical, fluorescence polarization, Cy5-PAM2 peptide, secondary (AID 602260); format: functional; conditions: read-out: IC50_Mean
[13] = target: T5, High affinity choline transporter 1 (Homo sapiens, UniProt Q9GZV3); experiment: CHT inhibitors, dose response, cell-based, 5-point CRC, membrane potential dye (AID 504840); format: functional
T5 sequence (Q9GZV3 whole entry): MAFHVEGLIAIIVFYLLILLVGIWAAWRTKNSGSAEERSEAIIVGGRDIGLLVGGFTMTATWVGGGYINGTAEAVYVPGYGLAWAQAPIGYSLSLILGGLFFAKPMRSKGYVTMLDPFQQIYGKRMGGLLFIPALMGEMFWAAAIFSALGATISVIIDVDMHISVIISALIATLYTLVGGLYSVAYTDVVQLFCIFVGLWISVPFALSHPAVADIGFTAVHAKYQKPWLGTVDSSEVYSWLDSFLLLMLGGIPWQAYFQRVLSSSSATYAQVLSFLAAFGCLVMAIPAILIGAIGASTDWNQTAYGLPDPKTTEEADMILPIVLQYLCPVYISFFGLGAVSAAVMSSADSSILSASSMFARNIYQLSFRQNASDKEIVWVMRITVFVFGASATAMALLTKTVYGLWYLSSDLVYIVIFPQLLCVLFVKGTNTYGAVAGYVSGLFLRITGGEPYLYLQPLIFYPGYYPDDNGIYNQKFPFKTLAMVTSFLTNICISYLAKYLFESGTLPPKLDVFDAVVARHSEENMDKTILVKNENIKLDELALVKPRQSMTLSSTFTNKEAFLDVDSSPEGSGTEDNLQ

[14] = THP-1 cell cytotoxicity, dose response, cytotoxicity control for non-replicating M. tuberculosis project (AID 489025); format: functional
[15] = target: T6, Short transient receptor potential channel 4 (Mus musculus, UniProt Q9QUQ5); experiment: mouse TRPC4 channel activators, dose response, cell-based, HEK293 TRPC4/mu-opioid, Fluo-4 calcium (AID 434937); format: functional
T6 sequence (Q9QUQ5 whole entry): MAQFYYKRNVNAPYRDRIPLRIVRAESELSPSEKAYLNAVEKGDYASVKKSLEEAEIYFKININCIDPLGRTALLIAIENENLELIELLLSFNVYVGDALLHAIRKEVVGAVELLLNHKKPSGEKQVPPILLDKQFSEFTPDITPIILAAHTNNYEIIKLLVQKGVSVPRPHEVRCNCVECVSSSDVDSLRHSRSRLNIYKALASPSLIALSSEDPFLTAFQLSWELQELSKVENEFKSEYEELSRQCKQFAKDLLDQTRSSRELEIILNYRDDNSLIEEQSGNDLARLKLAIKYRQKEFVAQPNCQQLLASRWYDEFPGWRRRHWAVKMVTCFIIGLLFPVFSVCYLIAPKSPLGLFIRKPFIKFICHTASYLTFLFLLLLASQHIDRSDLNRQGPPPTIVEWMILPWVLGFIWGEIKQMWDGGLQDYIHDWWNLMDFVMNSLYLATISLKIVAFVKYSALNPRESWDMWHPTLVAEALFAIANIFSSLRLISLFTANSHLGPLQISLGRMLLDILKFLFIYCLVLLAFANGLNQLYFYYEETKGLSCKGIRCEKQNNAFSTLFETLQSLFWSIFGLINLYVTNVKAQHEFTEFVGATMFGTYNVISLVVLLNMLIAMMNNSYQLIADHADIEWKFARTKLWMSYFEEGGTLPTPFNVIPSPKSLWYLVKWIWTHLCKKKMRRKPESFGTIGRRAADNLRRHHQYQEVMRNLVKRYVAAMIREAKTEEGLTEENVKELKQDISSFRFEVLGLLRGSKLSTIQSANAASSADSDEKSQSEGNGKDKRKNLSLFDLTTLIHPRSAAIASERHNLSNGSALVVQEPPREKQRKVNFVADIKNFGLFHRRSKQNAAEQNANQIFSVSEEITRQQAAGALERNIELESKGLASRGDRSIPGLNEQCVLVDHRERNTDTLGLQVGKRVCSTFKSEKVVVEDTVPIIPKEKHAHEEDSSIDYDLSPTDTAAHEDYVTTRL

cells = format: functional
Genome polyprotein = Genome polyprotein (dengue virus type 2, UniProt P29990); experiment: Dengue-2 NS5 methyltransferase inhibitors, primary screen, biochemical, confirmation dose response (AID 588689); format: functional
Vero = Vero cell cytotoxicity, cytotoxicity control for flavivirus capping enzyme inhibitors (AID 588742); format: functional; conditions: Chlorocebus sabaeus

Sequence of Beta-galactosidase (Q8VNN2 whole entry): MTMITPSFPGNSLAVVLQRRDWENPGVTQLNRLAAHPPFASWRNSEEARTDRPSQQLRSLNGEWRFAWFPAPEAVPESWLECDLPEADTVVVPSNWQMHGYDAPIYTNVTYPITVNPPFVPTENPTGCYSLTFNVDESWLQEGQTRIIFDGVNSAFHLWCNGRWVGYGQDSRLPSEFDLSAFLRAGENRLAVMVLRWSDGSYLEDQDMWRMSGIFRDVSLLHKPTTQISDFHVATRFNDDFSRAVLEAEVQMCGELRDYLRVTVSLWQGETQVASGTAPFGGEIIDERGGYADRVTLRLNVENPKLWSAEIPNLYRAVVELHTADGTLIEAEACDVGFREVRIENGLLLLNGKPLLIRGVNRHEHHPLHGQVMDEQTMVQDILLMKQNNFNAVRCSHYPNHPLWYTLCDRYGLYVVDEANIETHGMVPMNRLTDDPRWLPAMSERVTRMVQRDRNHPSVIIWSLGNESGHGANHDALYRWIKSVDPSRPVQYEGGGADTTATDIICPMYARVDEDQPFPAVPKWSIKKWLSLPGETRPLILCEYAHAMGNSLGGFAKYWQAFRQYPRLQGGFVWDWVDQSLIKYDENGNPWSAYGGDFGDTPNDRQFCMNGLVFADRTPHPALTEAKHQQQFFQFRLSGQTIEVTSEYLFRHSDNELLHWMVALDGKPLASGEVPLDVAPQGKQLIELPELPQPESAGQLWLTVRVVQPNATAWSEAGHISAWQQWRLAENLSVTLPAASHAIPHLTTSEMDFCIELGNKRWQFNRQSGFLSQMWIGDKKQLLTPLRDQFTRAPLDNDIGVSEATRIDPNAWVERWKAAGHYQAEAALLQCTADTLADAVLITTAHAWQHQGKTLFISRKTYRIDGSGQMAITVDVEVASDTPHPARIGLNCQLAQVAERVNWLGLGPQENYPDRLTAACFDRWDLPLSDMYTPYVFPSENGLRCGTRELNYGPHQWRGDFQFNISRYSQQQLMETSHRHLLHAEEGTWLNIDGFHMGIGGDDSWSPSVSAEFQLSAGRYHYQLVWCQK

SMILES: CC(=O)Nc1ccc(/C=C/c2nc3ccccc3o2)cc1
- AC50 [1]: 1.2 µM (active)

SMILES: CC(NC(=O)COc1ccccc1)C(=O)OCC(=O)c1cc2ccccc2o1 (stereo not given)
- EC50 (Beta-galactosidase): > 40 µM (inactive)
- EC50 [2]: > 300 µM (not active)
- IC50 [3]: 13.8 µM (active)
- EC50 [4]: > 300 µM (not active)

SMILES: CC1=C(n2nnc([N+](=O)[O-])n2)C(c2cccnc2)C(C#N)=C(N)O1 (stereo not given)
- EC50 [5]: 0.209 µM (active)
- IC50 [6]: 65 µM (inactive)
- EC50 [7]: > 60 µM (inconclusive)

SMILES: O=C(C[n+]1ccc(-c2cc(C(=O)Nc3cccc(C(F)(F)F)c3)c3ccccc3n2)cc1)c1cccc([N+](=O)[O-])c1
- EC50 (Beta-galactosidase): > 40 µM (inactive)
- IC50 [3]: 26 µM (not active)

SMILES: CCC(OC(=O)c1cc2sccc2n1C)C(=O)NCc1ccco1 (stereo not given)
- EC50 [8]: > 79.4 µM (inactive)
- EC50 [9]: > 26.5 µM (not active)
- EC50 [10]: > 79.4 µM (not active)

SMILES: N#CCCN1CCN(C(=S)c2ccc(-c3ccc(Cl)cc3)o2)CC1
- EC50 [8]: > 79.4 µM (inactive)
- EC50 [9]: > 79.4 µM (not active)
- EC50 [10]: > 79.4 µM (not active)

SMILES: NC(=S)c1ccc(C(N)=S)o1
- AC50 [1]: 14.3 µM (active)
- IC50 [11]: > 66 µM (inactive)
- IC50 [12]: > 66 µM (inactive)

SMILES: C[C@H](NC(=O)OC(C)(C)C)c1nnc(SCC(=O)c2ccc(Cl)cc2)o1
- IC50 [13]: 1.91 µM (active)

SMILES: CCn1c(=O)cc(SCC(=O)N2CCN(c3ccccc3OC)CC2)c2ccccc21
- EC50 [8]: > 79.4 µM (inactive)
- EC50 [9]: > 79.4 µM (not active)
- EC50 [10]: > 79.4 µM (not active)

SMILES: Cc1cc(Cl)cc(C)c1OCCCCn1ccnc1
- CC50 [14]: 38.2 µM (active)
- EC50 [15]: 3.76 µM (active)
- IC50 (cells): 15.5 µM (active)

SMILES: COc1ccc(-n2c(=S)[nH]c3cc(C(=O)NCCCN4CCOCC4)ccc3c2=O)cc1
- IC50 [13]: 10.3 µM (active)

SMILES: O=c1cc(-c2ccccc2)oc2cc(O)c(O)c(O)c12 [BAICALEIN]
- AC50 [1]: 14.5 µM (active)
- IC50 (Genome polyprotein): 35.1 µM (active)
- CC50 (Vero): > 40 µM (active)
